In ChEMBL document CHEMBL5360570, “Discovery of pyrazolo[3,4-b]pyridine derivatives as novel and potent Mps1 inhibitors for the treatment of cancer” (Eur J Med Chem, 2023):

What was measured:
[1] = molecular target: Activated CDC42 kinase 1 (Homo sapiens) (UniProt Q07912); assay: Inhibition of ACK1 (unknown origin) assessed as residual activity at 1 uM relative to control
[2] = molecular target: NUAK family SNF1-like kinase 1 (Homo sapiens) (UniProt O60285); assay: Inhibition of ARK5 (unknown origin) assessed as residual activity at 1 uM relative to control
[3] = molecular target: Calcium/calmodulin-dependent protein kinase type II subunit alpha (Homo sapiens) (UniProt Q9UQM7); assay: Inhibition of CaMK2alpha (unknown origin) assessed as residual activity at 1 uM relative to control
[4] = molecular target: Calcium/calmodulin-dependent protein kinase kinase 2 (Homo sapiens) (UniProt Q96RR4); assay: Inhibition of CAMKK2 (unknown origin) assessed as residual activity at 1 uM relative to control
[5] = molecular target: Mitogen-activated protein kinase kinase kinase 9 (Homo sapiens) (UniProt P80192); assay: Inhibition of MLK1 (unknown origin) assessed as residual activity at 1 uM relative to control
[6] = molecular target: Serine/threonine-protein kinase SIK1 (Homo sapiens) (UniProt P57059); assay: Inhibition of SIK1 (unknown origin) assessed as residual activity at 1 uM relative to control
[7] = molecular target: Serine/threonine-protein kinase SIK2 (Homo sapiens) (UniProt Q9H0K1); assay: Inhibition of SIK2 (unknown origin) assessed as residual activity at 1 uM relative to control
[8] = tested on: ALK tyrosine kinase receptor (Homo sapiens), Q9UM73 [C1156Y]; assay: Inhibition of ALK C1156Y mutant (unknown origin) assessed as residual activity at 1 uM relative to control
[9] = tested on: EML4-ALK (Homo sapiens), Q9UM73+Q9HC35 [F1174L]; assay: Inhibition of ALK F1174L mutant (unknown origin)/EML4 (unknown origin) assessed as residual activity at 1 uM relative to control; assay type: protein assay
[10] = tested on: NPM/ALK (Nucleophosmin/ALK tyrosine kinase receptor) (Homo sapiens), Q9UM73+P06748 [F1174L]; assay: Inhibition of ALK F1174L mutant (unknown origin)/NPM1 (unknown origin) assessed as residual activity at 1 uM relative to control; assay type: protein assay
[11] = tested on: ALK tyrosine kinase receptor (Homo sapiens), Q9UM73 [G1269A]; assay: Inhibition of ALK G1269A mutant (unknown origin) assessed as residual activity at 1 uM relative to control
[12] = tested on: ALK tyrosine kinase receptor (Homo sapiens), Q9UM73 [R1275Q]; assay: Inhibition of ALK R1275Q mutant (unknown origin) assessed as residual activity at 1 uM relative to control
[13] = tested on: ALK tyrosine kinase receptor (Homo sapiens), Q9UM73 [T1151M]; assay: Inhibition of ALK T1151M mutant (unknown origin) assessed as residual activity at 1 uM relative to control
[14] = tested on: ALK tyrosine kinase receptor (Homo sapiens), Q9UM73 [UNDEFINED MUTATION]; assay: Inhibition of ALK T1151/L1152 mutant (unknown origin) assessed as residual activity at 1 uM relative to control
[15] = molecular target: ALK-KLC1 (Homo sapiens) (UniProt Q9UM73+Q07866); assay: Inhibition of ALK-KLC1 (unknown origin) assessed as residual activity at 1 uM relative to control; assay type: protein assay
[16] = molecular target: NPM/ALK (Nucleophosmin/ALK tyrosine kinase receptor) (Homo sapiens) (UniProt Q9UM73+P06748); assay: Inhibition of ALK-NPM1 (unknown origin) assessed as residual activity at 1 uM relative to control; assay type: protein assay
[17] = molecular target: T1, ALK-TFG (Homo sapiens) (UniProt Q9UM73+Q92734); assay: Inhibition of ALK-TFG (unknown origin) assessed as residual activity at 1 uM relative to control; assay type: protein assay
[18] = molecular target: T1, ALK-TFG (Homo sapiens); assay: Inhibition of ALK-TFG (Tex4Aex20) (unknown origin) assessed as residual activity at 1 uM relative to control; assay type: protein assay
[19] = tested on: Fibroblast growth factor receptor 2 (Homo sapiens), P21802 [K526E]; assay: Inhibition of FGFR2 K526E mutant (unknown origin) assessed as residual activity at 1 uM relative to control
[20] = tested on: Fibroblast growth factor receptor 2 (Homo sapiens), P21802 [V564F]; assay: Inhibition of FGFR2 V564F mutant (unknown origin) assessed as residual activity at 1 uM relative to control
[21] = molecular target: ROS1-GOPC (Homo sapiens) (UniProt P08922+Q9HD26); assay: Inhibition of ROS1-GOPC (unknown origin) assessed as residual activity at 1 uM relative to control; assay type: protein assay
[22] = tested on: MCF7; assay: Antiproliferative activity against human MCF7 cells assessed inhibition of cell growth incubated for 72 hrs by CCK-8 assay; assay type: functional, cell-based; conditions: MCF7, 72 h
[23] = Antiproliferative activity against human RBE cells assessed inhibition of cell growth incubated for 72 hrs by CCK-8 assay; assay type: functional, cell-based
[24] = Metabolic stability in human liver microsome assessed as parent compound remaining preincubated for 10 mins followed by NADPH addition and measured at 5 mins by LC-MS/MS analysis; assay type: ADME; conditions: liver microsomes, time 15 min, read-out: Stability
[25] = Metabolic stability in human liver microsome assessed as parent compound remaining preincubated for 10 mins followed by NADPH addition and measured at 30 mins by LC-MS/MS analysis; assay type: ADME; conditions: liver microsomes, time 40 min, read-out: Stability
[26] = Metabolic stability in human liver microsome assessed as half life preincubated for 10 mins followed by NADPH addition and measured upto 60 mins by LC-MS/MS analysis; assay type: ADME; conditions: liver microsomes, time < 70 min
[27] = C0 in Sprague-Dawley rat at 2 mg/kg, iv measured upto 24 hrs by LC-MS/MS analysis; assay type: ADME, organism-based; conditions: in vivo
[28] = Half life in Sprague-Dawley rat at 10 mg/kg, po measured upto 24 hrs by LC-MS/MS analysis; assay type: ADME, organism-based; conditions: in vivo
[29] = Tmax in Sprague-Dawley rat at 2 mg/kg, iv measured upto 24 hrs by LC-MS/MS analysis; assay type: ADME, organism-based; conditions: in vivo
[30] = AUC (0 to t) in Sprague-Dawley rat at 10 mg/kg, po measured upto 24 hrs by LC-MS/MS analysis; assay type: ADME, organism-based; set-up: time < 24 hrs, dose 10 mg/kg, route po; conditions: in vivo
[31] = MRT (0 to t) in Sprague-Dawley rat at 2 mg/kg, iv measured upto 24 hrs by LC-MS/MS analysis; assay type: ADME, organism-based; conditions: in vivo
[32] = MRT (0 to t) in Sprague-Dawley rat at 10 mg/kg, po measured upto 24 hrs by LC-MS/MS analysis; assay type: ADME, organism-based; conditions: in vivo
[33] = Volume of distribution at steady state in Sprague-Dawley rat at 2 mg/kg, iv measured upto 24 hrs by LC-MS/MS analysis; assay type: ADME, organism-based; conditions: in vivo, read-out: Vdss
[34] = tested on: MDA-MB-468; assay: Antitumor activity against human MDA-MB-468 cells xenografted in BALB/c nude mouse assessed as tumor growth inhibition at 30 mg/kg, iv administered once daily for 21 days; assay type: functional; conditions: MDA-MB-468, 504 h, time 21 day, read-out: TGI
[35] = tested on: MDA-MB-468; assay: Antitumor activity against human MDA-MB-468 cells xenografted in BALB/c nude mouse assessed as tumor growth inhibition at 60 mg/kg, po administered once daily for 21 days; assay type: functional; conditions: MDA-MB-468, 504 h, time 21 day, read-out: TGI

T1 sequence (Q92734 whole entry, looked up): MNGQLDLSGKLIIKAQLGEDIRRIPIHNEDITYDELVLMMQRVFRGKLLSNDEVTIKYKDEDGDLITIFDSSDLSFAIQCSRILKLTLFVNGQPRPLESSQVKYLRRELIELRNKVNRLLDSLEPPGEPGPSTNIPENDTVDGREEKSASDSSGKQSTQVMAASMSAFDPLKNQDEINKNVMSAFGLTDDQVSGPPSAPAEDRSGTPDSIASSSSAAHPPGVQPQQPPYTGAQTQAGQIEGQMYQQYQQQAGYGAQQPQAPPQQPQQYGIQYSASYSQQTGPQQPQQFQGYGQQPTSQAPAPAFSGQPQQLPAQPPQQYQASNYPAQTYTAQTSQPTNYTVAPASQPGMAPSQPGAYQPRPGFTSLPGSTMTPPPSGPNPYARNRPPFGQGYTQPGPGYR
T1 sequence (Q9UM73 whole entry, looked up): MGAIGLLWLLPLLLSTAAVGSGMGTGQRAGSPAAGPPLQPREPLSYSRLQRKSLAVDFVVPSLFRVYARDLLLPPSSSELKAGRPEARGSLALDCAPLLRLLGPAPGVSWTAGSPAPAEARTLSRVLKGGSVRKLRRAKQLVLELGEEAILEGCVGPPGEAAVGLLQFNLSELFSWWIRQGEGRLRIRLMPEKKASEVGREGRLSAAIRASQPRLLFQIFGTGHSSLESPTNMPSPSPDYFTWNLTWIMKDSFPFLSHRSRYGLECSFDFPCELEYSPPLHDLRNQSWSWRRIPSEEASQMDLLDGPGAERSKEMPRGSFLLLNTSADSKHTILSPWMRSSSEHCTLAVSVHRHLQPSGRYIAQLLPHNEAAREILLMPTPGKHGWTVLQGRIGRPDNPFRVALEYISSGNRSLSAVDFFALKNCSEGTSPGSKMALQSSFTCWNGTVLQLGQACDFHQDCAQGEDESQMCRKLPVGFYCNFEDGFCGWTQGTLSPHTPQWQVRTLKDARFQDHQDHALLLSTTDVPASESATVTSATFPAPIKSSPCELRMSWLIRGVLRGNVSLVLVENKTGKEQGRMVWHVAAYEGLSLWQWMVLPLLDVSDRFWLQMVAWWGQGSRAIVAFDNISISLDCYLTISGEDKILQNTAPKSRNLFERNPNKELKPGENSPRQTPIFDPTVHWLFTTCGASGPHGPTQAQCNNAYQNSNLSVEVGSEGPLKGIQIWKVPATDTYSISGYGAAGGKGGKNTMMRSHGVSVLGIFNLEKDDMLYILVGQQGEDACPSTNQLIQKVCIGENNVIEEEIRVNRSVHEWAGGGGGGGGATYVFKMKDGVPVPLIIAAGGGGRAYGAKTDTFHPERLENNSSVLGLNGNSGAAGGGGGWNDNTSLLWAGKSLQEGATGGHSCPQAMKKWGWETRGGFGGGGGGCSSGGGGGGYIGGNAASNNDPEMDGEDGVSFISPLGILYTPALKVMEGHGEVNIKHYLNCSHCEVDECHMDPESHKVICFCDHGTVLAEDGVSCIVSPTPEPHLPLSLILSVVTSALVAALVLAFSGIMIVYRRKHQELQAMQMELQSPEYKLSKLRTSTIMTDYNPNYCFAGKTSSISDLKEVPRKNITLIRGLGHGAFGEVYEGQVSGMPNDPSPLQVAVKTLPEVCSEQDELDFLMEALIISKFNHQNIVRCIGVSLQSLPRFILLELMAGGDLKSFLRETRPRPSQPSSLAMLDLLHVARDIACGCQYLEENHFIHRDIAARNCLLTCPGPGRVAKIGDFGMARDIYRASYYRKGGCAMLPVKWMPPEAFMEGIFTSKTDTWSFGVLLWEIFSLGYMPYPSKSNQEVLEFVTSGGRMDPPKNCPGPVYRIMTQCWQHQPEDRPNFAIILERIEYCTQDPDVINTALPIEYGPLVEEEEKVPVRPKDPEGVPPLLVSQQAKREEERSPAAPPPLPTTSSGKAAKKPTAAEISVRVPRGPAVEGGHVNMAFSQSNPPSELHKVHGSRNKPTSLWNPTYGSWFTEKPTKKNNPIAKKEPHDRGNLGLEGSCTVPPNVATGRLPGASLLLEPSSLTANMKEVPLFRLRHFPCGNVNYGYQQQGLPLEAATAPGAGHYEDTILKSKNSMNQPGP
ALK tyrosine kinase receptor (Homo sapiens), Q9UM73 [G1269A], sequence (Q9UM73 whole entry G1269A): as the sequence (Q9UM73 whole entry, looked up) above, with G1269A counted along it
Calcium/calmodulin-dependent protein kinase type II subunit alpha (Homo sapiens), sequence (Q9UQM7 whole entry): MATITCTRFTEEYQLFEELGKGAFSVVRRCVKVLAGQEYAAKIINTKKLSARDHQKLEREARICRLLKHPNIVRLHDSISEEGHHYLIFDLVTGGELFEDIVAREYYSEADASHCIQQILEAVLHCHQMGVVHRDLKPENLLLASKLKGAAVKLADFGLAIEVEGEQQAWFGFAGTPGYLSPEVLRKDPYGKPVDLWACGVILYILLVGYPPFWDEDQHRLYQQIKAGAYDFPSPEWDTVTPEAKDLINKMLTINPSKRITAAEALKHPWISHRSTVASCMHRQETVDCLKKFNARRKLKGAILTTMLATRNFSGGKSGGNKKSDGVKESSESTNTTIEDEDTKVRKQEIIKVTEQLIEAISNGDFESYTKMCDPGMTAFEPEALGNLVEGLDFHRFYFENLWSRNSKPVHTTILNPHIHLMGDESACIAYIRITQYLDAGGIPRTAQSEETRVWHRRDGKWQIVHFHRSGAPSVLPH
Calcium/calmodulin-dependent protein kinase kinase 2 (Homo sapiens), sequence (Q96RR4 2-588 limits assumed): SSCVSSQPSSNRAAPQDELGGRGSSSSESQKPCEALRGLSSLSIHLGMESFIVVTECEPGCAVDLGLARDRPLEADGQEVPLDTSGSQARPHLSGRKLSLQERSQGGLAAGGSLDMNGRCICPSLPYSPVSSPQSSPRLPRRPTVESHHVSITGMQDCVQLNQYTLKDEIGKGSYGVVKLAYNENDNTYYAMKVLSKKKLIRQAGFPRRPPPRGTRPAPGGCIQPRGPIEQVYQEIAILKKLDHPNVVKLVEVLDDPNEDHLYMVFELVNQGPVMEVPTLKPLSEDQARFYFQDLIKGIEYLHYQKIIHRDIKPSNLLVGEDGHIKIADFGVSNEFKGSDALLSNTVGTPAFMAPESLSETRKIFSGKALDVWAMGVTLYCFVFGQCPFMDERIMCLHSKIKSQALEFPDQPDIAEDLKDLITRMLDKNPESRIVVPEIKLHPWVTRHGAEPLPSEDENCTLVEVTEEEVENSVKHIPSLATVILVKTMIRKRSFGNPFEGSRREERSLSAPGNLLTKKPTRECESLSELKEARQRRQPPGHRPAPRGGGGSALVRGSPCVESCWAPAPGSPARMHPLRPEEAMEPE

**Q.** Which results are given for `CCc1cccc(CC)c1N1CCn2cc(-c3nc(Nc4ccc(N5CCN(C(C)=O)CC5)cc4OC)nc4[nH]ncc34)cc2C1=O`?
**A.** Activity [1]: < 10%; Activity [2]: < 10%; Activity [3]: < 10%; Activity [4]: < 10%; Activity [5]: < 10%; Activity [6]: < 10%; Activity [7]: < 10%; Activity [8]: < 10%; Activity [9]: < 10%; Activity [10]: < 10%; Activity [11]: < 10%; Activity [12]: < 10%; Activity [13]: < 10%; Activity [14]: < 10%; Activity [15]: < 10%; Activity [16]: < 10%; Activity [17]: < 10%; Activity [18]: < 10%; Activity [19]: < 10%; Activity [20]: < 10%; Activity [21]: < 10%; IC50 [22]: > 10 µM; IC50 [23]: > 10 µM; remaining at 5 min [24]: 82.7%; remaining at 0.5 h [25]: 48.7%; half-life [26]: 35.2 min; C0 at 24 h [27]: 5240 ng/mL; half-life [28]: 63 min; Tmax [29]: 4.98 min; AUC(0-t) at 24 h [30]: 204 ng·h/mL; MRT last at 24 h [31]: 20.4 min; MRT last at 24 h [32]: 1.11 h; Vd [33]: 0.672 L/kg; inhibition in vivo at 30 mg/kg [34]: 21%; inhibition in vivo at 60 mg/kg [35]: 34%
